Here are results for one compound from patent US20080031811A1, “Method For Preparing Radioactive Film” (DONG WHA PHARM. IND. CO., LTD., priority 2004, published 2008).

The data set in a line: Thermal characteristic of film (TGA). The class given is physicochemical. Conditions: measured at 500° C. As to the method:
The behavior of thermal change according to temperature change in holmium nitrate, polyurethane film, and holmium-165 polyurethane film (Example 13) is measured by using a thermogravimetric analyzer (TGA, […], Germany) and a differential scanning calorimetry (DSC, […], Germany). TGA analyzes the changes in the mass of a substance according to temperature by a thermal decomposition curve. The analysis conditions of TGA are as follows; 30˜600° C. of temperature, 5.0 mg of a substance, 10° C./min of heating rate. Calorie change of a substance according to temperature change is measured by DSC. DSC is measured at the same condition as TGA and the sample is sealed in an aluminum pan under nitrogen atmosphere.

Turning to `O=[N+]([O-])[O-].O=[N+]([O-])[O-].O=[N+]([O-])[O-].[Ho+3]` [holmium nitrate, ^165Ho(No3)3.5H2O], the “Residual weight % after decomposition” value came to 37%.
